Laboratory results: PMC7265429, “Characterization of a new small-molecule inhibitor of HDAC6 in glioblastoma” (Cell Death & Disease, 2020)

Test system: GNS166 cells
Experiment: Microarray whole-transcriptome gene expression analysis
Format: cell-based, human
Method: Whole-transcriptome analysis was performed from 300 ng of RNA using HuGene-2_0-st-v1 expression array (Affymetrix), which covers 48,226 transcripts. Raw data were first checked for quality purposes through the Affymetrix® Expression Console™ Software v1.4.1 and TAC software v4.0. Then, data were normalized using the Robust Multi-array Average (RMA) and analyzed by Limma tool. Probesets with FDR-corrected p-values smaller than 0.05 were selected. Functional enrichment on Gene Ontology (GO) biological processes was performed on a smaller subset of the differentially expressed genes (corrected p-value < 0.001) by means of Broad Institute GSEA. […] The data that support this study have been deposited in NCBI´s Gene Expression Omnibus and are accessible through GEO series accession number GSE143887.

[1] = sheet DMSO-SAHA_DOWN, microarray

O=C(CCCCCCC(=O)Nc1ccccc1)NO [SAHA, Suberoylanilide hydroxamic acid]
logFC ZNF85 (DMSO vs SAHA, downregulated, transcript TC1900007502.hg.1): -1.299
logFC ZNF254 (DMSO vs SAHA, downregulated, transcript TC1900007622.hg.1): -1.436
logFC AXL (DMSO vs SAHA, downregulated, transcript TC1900008143.hg.1): -2.335
logFC KEAP1 (DMSO vs SAHA, downregulated, transcript TC1900009630.hg.1): -1.437
logFC EMP3 (DMSO vs SAHA, downregulated, transcript TC1900011774.hg.1): -1.798
logFC UBE2C (DMSO vs SAHA, downregulated, transcript TC2000007503.hg.1): -1.95
logFC JPH2 (DMSO vs SAHA, downregulated, transcript TC2000009178.hg.1): -1.382
logFC ZFP64 (DMSO vs SAHA, downregulated, transcript TC2000009469.hg.1): -1.251
logFC AURKA (DMSO vs SAHA, downregulated, transcript TC2000009550.hg.1): -1.686
logFC UCKL1 (DMSO vs SAHA, downregulated, transcript TC2000009848.hg.1): -1.222
logFC MX1 (DMSO vs SAHA, downregulated, transcript TC2100007208.hg.1): -1.686
logFC COL6A1 (DMSO vs SAHA, downregulated, transcript TC2100007446.hg.1): -1.16
logFC SUMO3 (DMSO vs SAHA, downregulated, transcript TC2100008385.hg.1): -1.431
logFC TRIOBP (DMSO vs SAHA, downregulated, transcript TC2200007313.hg.1): -1.456
logFC MICALL1 (DMSO vs SAHA, downregulated, transcript TC2200007324.hg.1): -1.322
logFC ZC3H7B (DMSO vs SAHA, downregulated, transcript TC2200007467.hg.1): -1.779
logFC GTSE1 (DMSO vs SAHA, downregulated, transcript TC2200007662.hg.1): -1.615
logFC TXNRD2 (DMSO vs SAHA, downregulated, transcript TC2200008001.hg.1): -1.47
logFC PATZ1 (DMSO vs SAHA, downregulated, transcript TC2200008477.hg.1): -1.5057
logFC NDUFA6 (DMSO vs SAHA, downregulated, transcript TC2200008859.hg.1): -1.148
logFC APOBEC3B (DMSO vs SAHA, downregulated, transcript TC2200009270.hg.1): -1.723
logFC APOBEC3C (DMSO vs SAHA, downregulated, transcript TC2200009271.hg.1): -1.685
logFC RBX1 (DMSO vs SAHA, downregulated, transcript TC2200009278.hg.1): -1.233
logFC TRMU (DMSO vs SAHA, downregulated, transcript TC2200009288.hg.1): -1.487
logFC KIF15 (DMSO vs SAHA, downregulated, transcript TSUnmapped00000255.hg.1): -1.857
logFC KIF15 (DMSO vs SAHA, downregulated, transcript TSUnmapped00000627.hg.1): -1.713
logFC AES (transcript TC1900009272.hg.1) [1]: -1.167
logFC APOBEC3G (transcript TC2200009274.hg.1) [1]: -1.162
logFC ATF7 (transcript TC1200010809.hg.1) [1]: -0.8995
logFC ATG4D (transcript TC1900006989.hg.1) [1]: -0.9381
logFC ATP5G2 (transcript TC1200012798.hg.1) [1]: -0.8974
logFC ATXN10 (transcript TC2200007626.hg.1) [1]: -0.8219
logFC AVEN (transcript TC1500008971.hg.1) [1]: -1.4
logFC B4GALT2 (transcript TC0100008082.hg.1) [1]: -1.044
logFC BORCS7-ASMT (transcript TC1000012497.hg.1) [1]: -1.471
logFC C1QBP (transcript TC1700012341.hg.1) [1]: -0.864
logFC CARD8 (transcript TC1900011061.hg.1) [1]: -1.473
logFC CD109 (transcript TC0600008539.hg.1) [1]: -1.058
logFC CDC25B (transcript TC2000006559.hg.1) [1]: -1.166
logFC COMT (transcript TC2200006623.hg.1) [1]: -1.056
logFC CXCL14 (transcript TC0500012107.hg.1) [1]: -1.597
logFC DENND2A (transcript TC0700012813.hg.1) [1]: -1.223
logFC EOGT (transcript TC0300011448.hg.1) [1]: -1.387
logFC FAM65B (transcript TC0600014247.hg.1) [1]: -1.186
logFC FAM83D (transcript TC2000007341.hg.1) [1]: -1.0787
logFC FBXO32 (transcript TC0800011683.hg.1) [1]: -1.239
logFC FHL2 (transcript TC0200013750.hg.1) [1]: -1.323
logFC GYG1 (transcript TC0300009126.hg.1) [1]: -0.8272
logFC H2AFY2 (transcript TC1000007913.hg.1) [1]: -1.438
logFC HGSNAT (transcript TC0800007460.hg.1) [1]: -1.179
logFC HIST1H1E (transcript TC0600007273.hg.1) [1]: -0.9296
logFC HIST1H2AK (transcript TC0600011228.hg.1) [1]: -1.094
logFC HIST1H3G (transcript TC0600011142.hg.1) [1]: -1.091
logFC HIST2H2AB (transcript TC0100015711.hg.1) [1]: -1.264
logFC HMGB2 (transcript TC0400012432.hg.1) [1]: -1.248
logFC HNF4G (transcript TC0800008002.hg.1) [1]: -1.665
logFC HOXB6 (transcript TC1700012433.hg.1) [1]: -0.9482
logFC HOXB7 (transcript TC1700012434.hg.1) [1]: -1.178
logFC HSF2BP (transcript TC2100008306.hg.1) [1]: -1.094
logFC KAT7 (transcript TC1700008216.hg.1) [1]: -0.9549
logFC KIF15 (transcript TSUnmapped00000127.hg.1) [1]: -1.52
logFC KIF15 (transcript TSUnmapped00000190.hg.1) [1]: -1.209
logFC KIF15 (transcript TSUnmapped00000242.hg.1) [1]: -1.3548
logFC KPNA2 (transcript TC1700008719.hg.1) [1]: -0.848
logFC KRTCAP2 (transcript TC0100018498.hg.1) [1]: -0.9489
logFC LOXL1 (transcript TC1500007829.hg.1) [1]: -1.906
logFC LRRC41 (transcript TC0100014050.hg.1) [1]: -1.4599
logFC MCPH1 (transcript TC0800006557.hg.1) [1]: -1.179
logFC MRPL15 (transcript TC0800007653.hg.1) [1]: -1.399
logFC MSRA (transcript TC0800006697.hg.1) [1]: -0.9684
logFC MYBL2 (transcript TC2000007438.hg.1) [1]: -1.297
logFC NCAPG2 (transcript TC0700013290.hg.1) [1]: -1.083
logFC NFKB1 (transcript TC0400008271.hg.1) [1]: -1.316
logFC NQO1 (transcript TC1600010732.hg.1) [1]: -1.465
logFC PKNOX1 (transcript TC2100007278.hg.1) [1]: -1.264
logFC PRRC2A (transcript TC0600007599.hg.1) [1]: -0.9194
logFC PTPRE (transcript TC1000009296.hg.1) [1]: -0.9151
logFC PTRHD1 (transcript TC0200011990.hg.1) [1]: -0.8388
logFC RHNO1 (transcript TC1200012573.hg.1) [1]: -1.078
logFC RUNX2 (transcript TC0600008146.hg.1) [1]: -1.088
logFC SAMD9L (transcript TC0700011797.hg.1) [1]: -1.884
logFC SCG2 (transcript TC0200015865.hg.1) [1]: -0.9206
logFC SLC47A2 (transcript TC1700010035.hg.1) [1]: -1.04
logFC SMARCB1 (transcript TC2200006862.hg.1) [1]: -1.487
logFC TAPBP (transcript TC0600011536.hg.1) [1]: -0.9356
logFC TAS2R13 (transcript TC1200009921.hg.1) [1]: -1.256
logFC TFDP1 (transcript TC1300008144.hg.1) [1]: -0.8938
logFC TK2 (transcript TC1600011551.hg.1) [1]: -1.009
logFC TNFRSF12A (transcript TC1600006652.hg.1) [1]: -0.9964
